# Several values for one entry are separate records, joined by “and”; a condition that tells them apart may be missing. Equal values may be shown once. Records with an inconclusive call do not appear.
# Test system: Lewis lung carcinoma i.m., BDF1 mice, T/C %
# Test: NCI In Vivo Anticancer Drug Screen. Data for tumor model Lewis Lung Carcinoma (intramuscular) in B6D2F1 (BDF1) mice
# Outline: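 Antitumour activity is assessed in transplanted-tumour mice. Endpoint is survival or tumour size, normalised to vehicle-dosed controls (T/C).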
# [1] = endpoint: median survival time, dose: 0.25 mg/kg/injection, schedule: Q01DX011 (ip), vehicle: water, higher = longer survival
# [2] = endpoint: median survival time, dose: 0.5 mg/kg/injection, schedule: Q01DX011 (ip), vehicle: water, higher = longer survival
smiles,measurement,setting,value
CCN(CC)CCNc1ccc(CO)c2sc3ccccc3c(=O)c12,T/C,"endpoint: mean tumor weight (est.), dose: 18.75 mg/kg/injection, schedule: Q01DX011 (ip), vehicle: saline, higher = larger tumour",110 % of control
same,T/C,"endpoint: mean tumor weight (est.), dose: 37.5 mg/kg/injection, schedule: Q01DX011 (ip), vehicle: saline, higher = larger tumour",56 % of control
same,T/C,"endpoint: mean tumor weight (est.), dose: 75.0 mg/kg/injection, schedule: Q01DX011 (ip), vehicle: saline, higher = larger tumour",19 % of control
same,T/C,"endpoint: median survival time, dose: 18.75 mg/kg/injection, schedule: Q01DX011 (ip), vehicle: saline, higher = longer survival",105 % of control
same,T/C,"endpoint: median survival time, dose: 37.5 mg/kg/injection, schedule: Q01DX011 (ip), vehicle: saline, higher = longer survival",107 % of control
same,T/C,"endpoint: median survival time, dose: 75.0 mg/kg/injection, schedule: Q01DX011 (ip), vehicle: saline, higher = longer survival",113 % of control
COc1cccc2c1C(=O)c1c(O)c3c(c(O)c1C2=O)C[C@@](O)(C(C)=O)C[C@@H]3OC1CC(N)C(O)C(C)O1 (some centres undefined),T/C,[1],93 % of control
same,T/C,[2],106 % of control and 117 % of control
same,T/C,"endpoint: median survival time, dose: 1.0 mg/kg/injection, schedule: Q01DX011 (ip), vehicle: water, higher = longer survival",107 % of control
Cc1n(CC(C)C)c2c([n+]1C)C(=O)c1ccccc1C2=O,T/C,"endpoint: mean tumor weight (est.), dose: 2.0 mg/kg/injection, schedule: Q01DX011 (ip), vehicle: saline with Tween-80, higher = larger tumour",40 % of control
same,T/C,"endpoint: median survival time, dose: 2.0 mg/kg/injection, schedule: Q01DX011 (ip), vehicle: saline with Tween-80, higher = longer survival",91 % of control
Cc1ccc(NC(=O)N(CCCl)N=O)cc1C,T/C,"endpoint: median survival time, dose: 8.4 mg/kg/injection, schedule: Q07DX003 (ip), vehicle: Klucel (hydroxypropylcellulose) (HPC), higher = longer survival",106 % of control
same,T/C,"endpoint: median survival time, dose: 14.0 mg/kg/injection, schedule: Q07DX003 (ip), vehicle: Klucel (hydroxypropylcellulose) (HPC), higher = longer survival",91 % of control
same,T/C,"endpoint: median survival time, dose: 23.0 mg/kg/injection, schedule: Q07DX003 (ip), vehicle: Klucel (hydroxypropylcellulose) (HPC), higher = longer survival",97 % of control
c1ccc2c(c1)ccc1c[n+]3ccccc3cc12,T/C,"endpoint: mean tumor weight (est.), dose: 0.25 mg/kg/injection, schedule: Q01DX011 (ip), vehicle: saline, higher = larger tumour",53 % of control
same,T/C,"endpoint: mean tumor weight (est.), dose: 0.5 mg/kg/injection, schedule: Q01DX011 (ip), vehicle: saline, higher = larger tumour",47 % of control
CC(=O)O[C@H]1[C@H]2O[C@]23[C@@H]2CC[C@@H]4C[C@@H](O)CC[C@]4(C)[C@H]2CC[C@]3(C)[C@H]1c1ccc(=O)oc1,T/C,"endpoint: mean tumor weight (est.), dose: 7.5 mg/kg/injection, schedule: Q01DX011 (ip), vehicle: other, higher = larger tumour",94 % of control
same,T/C,"endpoint: median survival time, dose: 7.5 mg/kg/injection, schedule: Q01DX011 (ip), vehicle: other, higher = longer survival",90 % of control
COC(=O)Nc1nc2ccc(C(=O)c3cccs3)cc2[nH]1,T/C,"endpoint: median survival time, dose: 35.0 mg/kg/injection, schedule: Q03DX008 (ip), vehicle: other, higher = longer survival",101 % of control
same,T/C,"endpoint: median survival time, dose: 70.0 mg/kg/injection, schedule: Q03DX008 (ip), vehicle: other, higher = longer survival",86 % of control
CO[C@H](C(=O)[C@@H](O)[C@@H](C)O)[C@@H]1Cc2cc3cc(OC4CC(OC5CC(O)C(O)C(C)O5)C(O)C(C)O4)c(C)c(O)c3c(O)c2C(=O)[C@H]1OC1CC(OC2CC(OC3CC(C)(O)C(O)C(C)O3)C(O)C(C)O2)C(O)C(C)O1 (some centres undefined),T/C,"endpoint: mean tumor weight, dose: 0.06 mg/kg/injection, schedule: Q01DX011 (ip), vehicle: water, higher = larger tumour",89 % of control
same,T/C,"endpoint: mean tumor weight, dose: 0.12 mg/kg/injection, schedule: Q01DX011 (ip), vehicle: water, higher = larger tumour",107 % of control
same,T/C,"endpoint: mean tumor weight, dose: 0.25 mg/kg/injection, schedule: Q01DX011 (ip), vehicle: water, higher = larger tumour",111 % of control
same,T/C,"endpoint: mean tumor weight, dose: 0.5 mg/kg/injection, schedule: Q01DX011 (ip), vehicle: water, higher = larger tumour",66 % of control
same,T/C,"endpoint: median survival time, dose: 0.12 mg/kg/injection, schedule: Q01DX011 (ip), vehicle: water, higher = longer survival",108 % of control and 114 % of control
same,T/C,"endpoint: median survival time, dose: 0.13 mg/kg/injection, schedule: Q01DX009 (ip), vehicle: water, higher = longer survival",94 % of control and 104 % of control
same,T/C,"endpoint: median survival time, dose: 0.25 mg/kg/injection, schedule: Q01DX009 (ip), vehicle: water, higher = longer survival",97 % of control and 101 % of control
same,T/C,[1],92 % of control and 109 % of control
same,T/C,"endpoint: median survival time, dose: 0.5 mg/kg/injection, schedule: Q01DX009 (ip), vehicle: water, higher = longer survival",95 % of control and 108 % of control
same,T/C,[2],103 % of control and 114 % of control
same,T/C,"endpoint: median survival time, dose: 1.0 mg/kg/injection, schedule: Q01DX009 (ip), vehicle: water, higher = longer survival",111 % of control
COC(=O)CC(OC)c1nc(C(=O)OC)c(C)c(=O)[nH]1 (centres undefined),T/C,"endpoint: median survival time, dose: 8.0 mg/kg/injection, schedule: Q01DX009 (ip), vehicle: Klucel (hydroxypropylcellulose) (HPC), higher = longer survival",114 % of control
same,T/C,"endpoint: median survival time, dose: 16.0 mg/kg/injection, schedule: Q01DX009 (ip), vehicle: Klucel (hydroxypropylcellulose) (HPC), higher = longer survival",123 % of control
same,T/C,"endpoint: median survival time, dose: 32.0 mg/kg/injection, schedule: Q01DX009 (ip), vehicle: Klucel (hydroxypropylcellulose) (HPC), higher = longer survival",88 % of control

# From PubChem BioAssay AID272 (DTP/NCI, 2004)
